{"source": "patent US9695155B2", "about": "“Herbicidal substituted pyrimidinyloxy benzene compounds” (E. I. DU PONT DE NEMOURS AND COMPANY, priority 2013, dated 2017)", "key": {"barnyardgrass [1]": {"system": "barnyardgrass", "assay": "Test A preemergence", "format": "in vivo, Echinochloa crus-galli", "settings": "for Plant response rating, Barnyardgrass: 125 g ai/ha, 0 to 100 scale where 0 is no effect and 100 is complete control; for Barnyardgrass plant response rating: 500 g ai/ha, 0 to 100 scale, 0 no effect, 100 complete control, approx. 10 days", "in_short": "(§1)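 Scoring: eye-based comparison with untreated controls, 0 for no effect through 100 for complete control, at about day 10. Treatments: directed soil spray preemergence; foliar spray postemergence on 2–10 cm plants at the one- to two-leaf stage. Medium: loam soil with sand.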"}, "large (Lg) crabgrass [2]": {"system": "large (Lg) crabgrass", "assay": "Test A preemergence", "format": "in vivo, Digitaria sanguinalis", "settings": "for Plant response rating, Crabgrass, Large: 125 g ai/ha, 0 to 100 scale where 0 is no effect and 100 is complete control; for Crabgrass, Large plant response rating: 500 g ai/ha, 0 to 100 scale, 0 no effect, 100 complete control, approx. 10 days", "in_short": "as §1"}, "giant foxtail [3]": {"system": "giant foxtail", "assay": "Test A preemergence", "format": "in vivo, Setaria faberii", "settings": "for Plant response rating, Foxtail, Giant: 125 g ai/ha, 0 to 100 scale where 0 is no effect and 100 is complete control; for Foxtail, Giant plant response rating: 500 g ai/ha, 0 to 100 scale, 0 no effect, 100 complete control, approx. 10 days", "in_short": "as §1"}, "morningglory [4]": {"system": "morningglory", "assay": "Test A preemergence", "format": "in vivo, Ipomoea spp.", "settings": "for Plant response rating, Morningglory: 125 g ai/ha, 0 to 100 scale where 0 is no effect and 100 is complete control; for Morningglory plant response rating: 500 g ai/ha, 0 to 100 scale, 0 no effect, 100 complete control, approx. 10 days", "in_short": "as §1"}, "pigweed [5]": {"system": "pigweed", "assay": "Test A preemergence", "format": "in vivo, Amaranthus retroflexus", "settings": "for Plant response rating, Pigweed: 125 g ai/ha, 0 to 100 scale where 0 is no effect and 100 is complete control; for Pigweed plant response rating: 500 g ai/ha, 0 to 100 scale, 0 no effect, 100 complete control, approx. 10 days", "in_short": "as §1"}, "velvetleaf [6]": {"system": "velvetleaf", "assay": "Test A preemergence", "format": "in vivo, Abutilon theophrasti", "settings": "for Plant response rating, Velvetleaf: 125 g ai/ha, 0 to 100 scale where 0 is no effect and 100 is complete control; for Velvetleaf plant response rating: 500 g ai/ha, 0 to 100 scale, 0 no effect, 100 complete control, approx. 10 days", "in_short": "as §1"}, "wheat [7]": {"system": "wheat", "assay": "Test A preemergence", "format": "in vivo, Triticum aestivum", "settings": "for Plant response rating, Wheat: 125 g ai/ha, 0 to 100 scale where 0 is no effect and 100 is complete control; for Wheat plant response rating: 500 g ai/ha, 0 to 100 scale, 0 no effect, 100 complete control, approx. 10 days", "in_short": "as §1"}, "corn [8]": {"system": "corn", "assay": "Test A preemergence", "format": "in vivo, Zea mays", "settings": "for Plant response rating, Corn: 125 g ai/ha, 0 to 100 scale where 0 is no effect and 100 is complete control; for Corn plant response rating: 500 g ai/ha, 0 to 100 scale, 0 no effect, 100 complete control, approx. 10 days", "in_short": "as §1"}, "barnyardgrass [9]": {"system": "barnyardgrass", "assay": "Test A postemergence", "format": "in vivo, Echinochloa crus-galli", "in_short": "as §1"}, "large (Lg) crabgrass [10]": {"system": "large (Lg) crabgrass", "assay": "Test A postemergence", "format": "in vivo, Digitaria sanguinalis", "in_short": "as §1"}, "giant foxtail [11]": {"system": "giant foxtail", "assay": "Test A postemergence", "format": "in vivo, Setaria faberii", "in_short": "as §1"}, "morningglory [12]": {"system": "morningglory", "assay": "Test A postemergence", "format": "in vivo, Ipomoea spp.", "in_short": "as §1"}, "pigweed [13]": {"system": "pigweed", "assay": "Test A postemergence", "format": "in vivo, Amaranthus retroflexus", "in_short": "as §1"}, "velvetleaf [14]": {"system": "velvetleaf", "assay": "Test A postemergence", "format": "in vivo, Abutilon theophrasti", "in_short": "as §1"}, "wheat [15]": {"system": "wheat", "assay": "Test A postemergence", "format": "in vivo, Triticum aestivum", "in_short": "as §1"}, "corn [16]": {"system": "corn", "assay": "Test A postemergence", "format": "in vivo, Zea mays", "in_short": "as §1"}, "rice": {"system": "rice", "assay": "Test B flooded paddy test", "format": "in vivo, Oryza sativa", "settings": "Flood, 250 g ai/ha; 0 to 100 scale where 0 is no effect and 100 is complete control", "in_short": "(§2)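 2-leaf stage plants; pots flooded to 3 cm, compound added to paddy water, depth maintained. Greenhouse 13–15 d. Visual rating vs untreated controls, 0 (no effect) to 100 (complete control); dash = no result.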"}, "sedge, umbrella": {"system": "sedge, umbrella", "assay": "Test B flooded paddy test", "format": "in vivo, Cyperus difformis", "settings": "Flood, 250 g ai/ha; 0 to 100 scale where 0 is no effect and 100 is complete control", "in_short": "as §2"}, "Heteranthera limosa": {"system": "Heteranthera limosa", "assay": "Test B flooded paddy test", "format": "in vivo", "settings": "Flood, 250 g ai/ha; 0 to 100 scale where 0 is no effect and 100 is complete control", "in_short": "as §2"}, "barnyardgrass [17]": {"system": "barnyardgrass", "assay": "Test B flooded paddy test", "format": "in vivo, Echinochloa crus-galli", "settings": "Flood, 250 g ai/ha; 0 to 100 scale where 0 is no effect and 100 is complete control", "in_short": "as §2"}, "[18]": {"settings": "125 g ai/ha, 0 to 100 scale where 0 is no effect and 100 is complete control"}, "[19]": {"settings": "500 g ai/ha, 0 to 100 scale, 0 no effect, 100 complete control"}}}
{"smiles": "Clc1cnc(Oc2cc(Cl)ccc2-n2cccn2)nc1", "note": "[Compound 49]", "values": [{"measurement": "Plant response rating, Barnyardgrass", "setting": "barnyardgrass [1]", "value": 0}, {"measurement": "Barnyardgrass plant response rating", "setting": "barnyardgrass [1]", "value": 0}, {"measurement": "Plant response rating, Crabgrass, Large", "setting": "large (Lg) crabgrass [2]", "value": 0}, {"measurement": "Crabgrass, Large plant response rating", "setting": "large (Lg) crabgrass [2]", "value": 20}, {"measurement": "Plant response rating, Foxtail, Giant", "setting": "giant foxtail [3]", "value": 0}, {"measurement": "Foxtail, Giant plant response rating", "setting": "giant foxtail [3]", "value": 10}, {"measurement": "Plant response rating, Morningglory", "setting": "morningglory [4]", "value": 0}, {"measurement": "Morningglory plant response rating", "setting": "morningglory [4]", "value": 0}, {"measurement": "Plant response rating, Pigweed", "setting": "pigweed [5]", "value": 0}, {"measurement": "Pigweed plant response rating", "setting": "pigweed [5]", "value": 0}, {"measurement": "Plant response rating, Velvetleaf", "setting": "velvetleaf [6]", "value": 0}, {"measurement": "Velvetleaf plant response rating", "setting": "velvetleaf [6]", "value": 20}, {"measurement": "Plant response rating, Wheat", "setting": "wheat [7]", "value": 0}, {"measurement": "Wheat plant response rating", "setting": "wheat [7]", "value": 0}, {"measurement": "Plant response rating, Corn", "setting": "corn [8]", "value": 0}, {"measurement": "Corn plant response rating", "setting": "corn [8]", "value": 0}, {"measurement": "Plant response rating, Barnyardgrass", "setting": "barnyardgrass [9]; [18]", "value": 0}, {"measurement": "Plant response rating, Barnyardgrass", "setting": "barnyardgrass [9]; [19]", "value": 10}, {"measurement": "Plant response rating, Crabgrass, Large", "setting": "large (Lg) crabgrass [10]; [18]", "value": 0}, {"measurement": "Plant response rating, Crabgrass, Large", "setting": "large (Lg) crabgrass [10]; [19]", "value": 10}, {"measurement": "Plant response rating, Foxtail, Giant", "setting": "giant foxtail [11]; [18]", "value": 0}, {"measurement": "Plant response rating, Foxtail, Giant", "setting": "giant foxtail [11]; [19]", "value": 10}, {"measurement": "Plant response rating, Morningglory", "setting": "morningglory [12]; [18]", "value": 0}, {"measurement": "Plant response rating, Morningglory", "setting": "morningglory [12]; [19]", "value": 20}, {"measurement": "Plant response rating, Pigweed", "setting": "pigweed [13]; [18]", "value": 0}, {"measurement": "Plant response rating, Pigweed", "setting": "pigweed [13]; [19]", "value": 40}, {"measurement": "Plant response rating, Velvetleaf", "setting": "velvetleaf [14]; [18]", "value": 10}, {"measurement": "Plant response rating, Velvetleaf", "setting": "velvetleaf [14]; [19]", "value": 30}, {"measurement": "Plant response rating, Wheat", "setting": "wheat [15]; [18]", "value": 0}, {"measurement": "Plant response rating, Wheat", "setting": "wheat [15]; [19]", "value": 0}, {"measurement": "Plant response rating, Corn", "setting": "corn [16]; [18]", "value": 0}, {"measurement": "Plant response rating, Corn", "setting": "corn [16]; [19]", "value": 0}, {"measurement": "Plant response rating, Rice", "setting": "rice", "value": 0}, {"measurement": "Plant response rating, Sedge, Umbrella", "setting": "sedge, umbrella", "value": 0}, {"measurement": "Plant response rating, Ducksalad", "setting": "Heteranthera limosa", "value": 0}, {"measurement": "Plant response rating, Barnyardgrass", "setting": "barnyardgrass [17]", "value": 0}]}
{"smiles": "Clc1ccc(-n2cccn2)c(Oc2ncc(Br)cn2)c1", "note": "[Compound 50]", "values": [{"measurement": "Plant response rating, Barnyardgrass", "setting": "barnyardgrass [1]", "value": 0}, {"measurement": "Barnyardgrass plant response rating", "setting": "barnyardgrass [1]", "value": 0}, {"measurement": "Plant response rating, Crabgrass, Large", "setting": "large (Lg) crabgrass [2]", "value": 0}, {"measurement": "Crabgrass, Large plant response rating", "setting": "large (Lg) crabgrass [2]", "value": 40}, {"measurement": "Plant response rating, Foxtail, Giant", "setting": "giant foxtail [3]", "value": 0}, {"measurement": "Foxtail, Giant plant response rating", "setting": "giant foxtail [3]", "value": 0}, {"measurement": "Plant response rating, Morningglory", "setting": "morningglory [4]", "value": 0}, {"measurement": "Morningglory plant response rating", "setting": "morningglory [4]", "value": 0}, {"measurement": "Plant response rating, Pigweed", "setting": "pigweed [5]", "value": 0}, {"measurement": "Pigweed plant response rating", "setting": "pigweed [5]", "value": 0}, {"measurement": "Plant response rating, Velvetleaf", "setting": "velvetleaf [6]", "value": 0}, {"measurement": "Velvetleaf plant response rating", "setting": "velvetleaf [6]", "value": 0}, {"measurement": "Plant response rating, Wheat", "setting": "wheat [7]", "value": 0}, {"measurement": "Wheat plant response rating", "setting": "wheat [7]", "value": 0}, {"measurement": "Plant response rating, Corn", "setting": "corn [8]", "value": 0}, {"measurement": "Corn plant response rating", "setting": "corn [8]", "value": 0}, {"measurement": "Plant response rating, Barnyardgrass", "setting": "barnyardgrass [9]; [18]", "value": 0}, {"measurement": "Plant response rating, Barnyardgrass", "setting": "barnyardgrass [9]; [19]", "value": 10}, {"measurement": "Plant response rating, Crabgrass, Large", "setting": "large (Lg) crabgrass [10]; [18]", "value": 0}, {"measurement": "Plant response rating, Crabgrass, Large", "setting": "large (Lg) crabgrass [10]; [19]", "value": 10}, {"measurement": "Plant response rating, Foxtail, Giant", "setting": "giant foxtail [11]; [18]", "value": 0}, {"measurement": "Plant response rating, Foxtail, Giant", "setting": "giant foxtail [11]; [19]", "value": 0}, {"measurement": "Plant response rating, Morningglory", "setting": "morningglory [12]; [18]", "value": 20}, {"measurement": "Plant response rating, Morningglory", "setting": "morningglory [12]; [19]", "value": 30}, {"measurement": "Plant response rating, Pigweed", "setting": "pigweed [13]; [18]", "value": 20}, {"measurement": "Plant response rating, Pigweed", "setting": "pigweed [13]; [19]", "value": 30}, {"measurement": "Plant response rating, Velvetleaf", "setting": "velvetleaf [14]; [18]", "value": 0}, {"measurement": "Plant response rating, Velvetleaf", "setting": "velvetleaf [14]; [19]", "value": 10}, {"measurement": "Plant response rating, Wheat", "setting": "wheat [15]; [18]", "value": 0}, {"measurement": "Plant response rating, Wheat", "setting": "wheat [15]; [19]", "value": 0}, {"measurement": "Plant response rating, Corn", "setting": "corn [16]; [18]", "value": 0}, {"measurement": "Plant response rating, Corn", "setting": "corn [16]; [19]", "value": 0}, {"measurement": "Plant response rating, Rice", "setting": "rice", "value": 0}, {"measurement": "Plant response rating, Sedge, Umbrella", "setting": "sedge, umbrella", "value": 0}, {"measurement": "Plant response rating, Ducksalad", "setting": "Heteranthera limosa", "value": 0}, {"measurement": "Plant response rating, Barnyardgrass", "setting": "barnyardgrass [17]", "value": 0}]}
